# According to ChEMBL document CHEMBL4673280, “Discovery and SAR studies of 2-alkyl-3-phenyl-2,4,5,6,7,8-hexahydropyrazolo[3,4-d]azepines as 5-HT inhibitors leading to the identification of a clinical candidate” (Bioorg Med Chem Lett, 2021):
# Assays:
# [1] = molecular target: T1, Adrenergic receptor alpha-1 (Rattus norvegicus, UniProt P15823+P23944+P43140); test: Displacement of […] from alpha1 adrenergic receptor in rat cortex membrane incubated for 60 mins by competitive radioligand binding assay; format: cell membranes
# T1 sequence (P15823 whole entry): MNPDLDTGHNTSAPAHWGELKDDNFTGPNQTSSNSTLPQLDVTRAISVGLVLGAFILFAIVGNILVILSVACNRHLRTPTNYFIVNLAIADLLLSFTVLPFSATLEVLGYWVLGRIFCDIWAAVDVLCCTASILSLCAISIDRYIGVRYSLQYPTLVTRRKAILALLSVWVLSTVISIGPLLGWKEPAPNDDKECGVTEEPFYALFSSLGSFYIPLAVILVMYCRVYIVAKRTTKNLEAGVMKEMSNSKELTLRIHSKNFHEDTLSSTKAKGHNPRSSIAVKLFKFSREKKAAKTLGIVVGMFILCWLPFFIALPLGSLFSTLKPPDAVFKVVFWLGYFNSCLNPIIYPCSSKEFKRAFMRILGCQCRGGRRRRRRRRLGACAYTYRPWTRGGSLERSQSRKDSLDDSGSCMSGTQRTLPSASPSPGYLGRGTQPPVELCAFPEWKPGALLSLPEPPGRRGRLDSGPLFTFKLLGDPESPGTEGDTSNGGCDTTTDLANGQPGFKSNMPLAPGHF
# T1 sequence (P23944 whole entry): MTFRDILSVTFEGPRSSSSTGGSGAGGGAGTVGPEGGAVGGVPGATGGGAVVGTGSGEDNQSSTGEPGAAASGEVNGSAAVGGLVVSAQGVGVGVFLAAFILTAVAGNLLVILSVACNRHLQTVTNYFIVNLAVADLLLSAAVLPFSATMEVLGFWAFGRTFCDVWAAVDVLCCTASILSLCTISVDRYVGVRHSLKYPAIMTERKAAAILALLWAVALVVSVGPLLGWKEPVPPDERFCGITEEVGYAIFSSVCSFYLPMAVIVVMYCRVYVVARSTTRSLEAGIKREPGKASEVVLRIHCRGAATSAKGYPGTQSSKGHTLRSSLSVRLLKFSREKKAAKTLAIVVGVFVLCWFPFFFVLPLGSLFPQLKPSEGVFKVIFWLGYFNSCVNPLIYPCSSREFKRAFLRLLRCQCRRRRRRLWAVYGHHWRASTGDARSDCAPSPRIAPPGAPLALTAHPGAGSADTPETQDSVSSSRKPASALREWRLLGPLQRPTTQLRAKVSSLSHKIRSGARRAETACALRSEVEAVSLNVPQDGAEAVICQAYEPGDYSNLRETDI
# T1 sequence (P43140 whole entry): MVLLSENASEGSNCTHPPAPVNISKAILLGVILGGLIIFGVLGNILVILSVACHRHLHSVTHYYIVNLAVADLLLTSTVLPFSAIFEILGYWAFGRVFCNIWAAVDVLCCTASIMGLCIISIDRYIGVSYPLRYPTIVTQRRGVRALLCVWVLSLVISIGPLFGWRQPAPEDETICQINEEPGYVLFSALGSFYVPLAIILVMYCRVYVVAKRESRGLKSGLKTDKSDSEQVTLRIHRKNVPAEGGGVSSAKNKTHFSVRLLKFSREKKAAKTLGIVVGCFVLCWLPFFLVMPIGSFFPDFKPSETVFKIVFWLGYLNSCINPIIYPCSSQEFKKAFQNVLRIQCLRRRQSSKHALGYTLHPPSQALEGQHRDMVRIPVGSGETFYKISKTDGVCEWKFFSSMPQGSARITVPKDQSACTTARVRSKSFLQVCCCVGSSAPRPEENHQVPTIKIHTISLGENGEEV
# [2] = molecular target: T2, 5-hydroxytryptamine receptor 2C (Homo sapiens, UniProt P28335); test: Displacement of [3H]-ketanserin from human 5-HT2C receptor by competitive radioligand binding assay
# T2 sequence (P28335 whole entry): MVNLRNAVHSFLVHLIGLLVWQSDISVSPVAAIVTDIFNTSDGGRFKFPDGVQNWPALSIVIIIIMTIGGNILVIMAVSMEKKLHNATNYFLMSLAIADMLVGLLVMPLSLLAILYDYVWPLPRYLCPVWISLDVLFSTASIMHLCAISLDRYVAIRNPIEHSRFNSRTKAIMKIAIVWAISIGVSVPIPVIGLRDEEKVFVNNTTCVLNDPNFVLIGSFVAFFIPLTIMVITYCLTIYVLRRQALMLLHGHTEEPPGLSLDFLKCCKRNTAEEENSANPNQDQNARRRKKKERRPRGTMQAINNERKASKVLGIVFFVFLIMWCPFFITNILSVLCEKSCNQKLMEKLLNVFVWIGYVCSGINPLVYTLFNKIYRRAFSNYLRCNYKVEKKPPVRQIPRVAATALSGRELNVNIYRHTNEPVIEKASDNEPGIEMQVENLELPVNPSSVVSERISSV
# [3] = molecular target: 5-hydroxytryptamine receptor 2A (Homo sapiens, UniProt P28223); test: Displacement of [3H]-ketanserin from human 5-HT2A receptor by competitive radioligand binding assay
# 5-hydroxytryptamine receptor 2A, sequence (P28223 whole entry): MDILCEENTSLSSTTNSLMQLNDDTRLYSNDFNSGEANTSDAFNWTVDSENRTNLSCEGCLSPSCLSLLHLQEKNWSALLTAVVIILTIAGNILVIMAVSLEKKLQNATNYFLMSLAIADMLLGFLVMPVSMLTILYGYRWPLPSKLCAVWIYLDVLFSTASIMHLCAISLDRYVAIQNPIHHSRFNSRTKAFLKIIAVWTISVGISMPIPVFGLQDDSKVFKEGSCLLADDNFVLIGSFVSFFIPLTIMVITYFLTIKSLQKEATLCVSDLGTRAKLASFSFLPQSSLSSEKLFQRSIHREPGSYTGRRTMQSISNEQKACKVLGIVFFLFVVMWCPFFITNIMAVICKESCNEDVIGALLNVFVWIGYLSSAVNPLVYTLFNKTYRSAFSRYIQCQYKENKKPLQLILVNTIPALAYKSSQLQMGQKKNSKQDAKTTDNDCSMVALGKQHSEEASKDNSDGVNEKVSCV
# [4] = molecular target: 5-hydroxytryptamine receptor 7 (Rattus norvegicus, UniProt P32305); test: Displacement of [3H]-CT from rat 5-HT7 receptor expressed in HEK293 cells by competitive radioligand binding assay; format: cell-based
# 5-hydroxytryptamine receptor 7, sequence (P32305 whole entry): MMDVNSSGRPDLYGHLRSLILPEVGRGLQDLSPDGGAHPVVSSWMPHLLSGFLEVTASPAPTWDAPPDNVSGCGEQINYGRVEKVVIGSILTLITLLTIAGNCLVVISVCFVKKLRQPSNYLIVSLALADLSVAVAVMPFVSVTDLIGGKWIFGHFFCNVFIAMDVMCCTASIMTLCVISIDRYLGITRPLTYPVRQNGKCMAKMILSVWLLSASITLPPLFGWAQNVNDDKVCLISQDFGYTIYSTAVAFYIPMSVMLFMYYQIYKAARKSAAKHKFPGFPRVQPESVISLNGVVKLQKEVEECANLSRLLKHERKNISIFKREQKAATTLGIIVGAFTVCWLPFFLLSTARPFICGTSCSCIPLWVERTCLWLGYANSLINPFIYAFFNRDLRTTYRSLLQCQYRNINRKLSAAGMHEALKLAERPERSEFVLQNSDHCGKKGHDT
# [5] = molecular target: 5-hydroxytryptamine receptor 2B (Homo sapiens, UniProt P41595); test: Displacement of [3H]-ketanserin from human 5-HT2B receptor by competitive radioligand binding assay
# 5-hydroxytryptamine receptor 2B, sequence (P41595 whole entry): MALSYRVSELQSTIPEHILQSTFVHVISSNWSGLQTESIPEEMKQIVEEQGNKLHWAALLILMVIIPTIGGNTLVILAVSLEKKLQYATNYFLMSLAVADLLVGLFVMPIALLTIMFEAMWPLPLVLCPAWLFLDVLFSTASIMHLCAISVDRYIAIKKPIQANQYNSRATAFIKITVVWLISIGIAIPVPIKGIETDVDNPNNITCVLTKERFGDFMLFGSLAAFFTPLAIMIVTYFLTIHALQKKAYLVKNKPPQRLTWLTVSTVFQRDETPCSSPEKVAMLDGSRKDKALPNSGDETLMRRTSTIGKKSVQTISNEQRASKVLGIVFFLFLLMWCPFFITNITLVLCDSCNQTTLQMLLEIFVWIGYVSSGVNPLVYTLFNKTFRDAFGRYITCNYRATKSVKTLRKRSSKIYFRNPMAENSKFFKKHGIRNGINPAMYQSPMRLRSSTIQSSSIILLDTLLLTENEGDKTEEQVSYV
SMILES,Ki [1] [nM],Ki [2] [nM],Ki [3] [nM],Ki [4] [nM],Ki [5] [nM]
CC(C)n1nc2c(c1-c1ccc(C#N)cc1)CCNCC2,240,390,5,90,
Clc1ccc(-c2nn(Cc3ccccc3)c3c2CCNCC3)cc1 [JNJ-18038683 FREE BASE],,,100,,
c1ccc(-c2c3c(nn2C2CCC2)CCNCC3)cc1,500,,3,,3
CC(C)n1nc2c(c1-c1ccc(Cl)cc1Cl)CCNCC2,,220,15,400,43
CCn1nc2c(c1-c1ccccc1)CCNCC2,,1200,60,140,75
c1ccc(-c2c3c(nn2C2CC2)CCNCC3)cc1,600,30,30,20,20
CC(C)(C)n1nc2c(c1-c1ccccc1)CCNCC2,,85,19,,43
Cc1ccc(-c2c3c(nn2C(C)C)CCNCC3)cc1,4,,1,,2
CC(C)n1nc2c(c1-c1ccc(Cl)c(Cl)c1)CCNCC2,,910,39,4000,31
